# From ChEMBL document CHEMBL1130835, “Peptidyl beta-homo-aspartals: specific inhibitors of interleukin-1 beta converting enzyme and its homologues (caspases)” (Bioorg Med Chem Lett, 1998)
# How the values were obtained:
# Caspase-1 [1] = molecular target: T1, Caspase-1 (Homo sapiens, UniProt P29466); assay: Amidolytic activity of THP.1 cell lysate against IL-1 beta converting enzyme using C1-Asp-AMC as a substrate; format: cell-based
# T1 sequence (P29466 whole entry): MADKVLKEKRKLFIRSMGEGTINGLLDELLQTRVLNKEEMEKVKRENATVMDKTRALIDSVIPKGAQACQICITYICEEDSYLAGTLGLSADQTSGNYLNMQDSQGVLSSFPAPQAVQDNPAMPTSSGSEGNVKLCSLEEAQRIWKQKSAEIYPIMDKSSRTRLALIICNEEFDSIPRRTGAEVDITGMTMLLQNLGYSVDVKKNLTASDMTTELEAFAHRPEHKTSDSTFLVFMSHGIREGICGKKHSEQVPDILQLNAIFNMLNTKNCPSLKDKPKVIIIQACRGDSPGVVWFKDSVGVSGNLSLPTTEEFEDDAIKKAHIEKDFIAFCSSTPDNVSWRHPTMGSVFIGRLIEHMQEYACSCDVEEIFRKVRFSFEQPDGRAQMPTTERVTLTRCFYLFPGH
# Caspase-1 [2] = molecular target: T1, Caspase-1; assay: Ability to inhibit IL-1 beta converting enzyme was evaluated in LPS-stimulated human whole blood; format: tissue-based
# Caspase-3 [3] = molecular target: T2, Caspase-3 (Homo sapiens, UniProt P42574); assay: Amidolytic activity of THP.1 cell lysate against Caspase-3 using C3-Asp-AMC as a substrate; format: cell-based
# T2 sequence (P42574 whole entry): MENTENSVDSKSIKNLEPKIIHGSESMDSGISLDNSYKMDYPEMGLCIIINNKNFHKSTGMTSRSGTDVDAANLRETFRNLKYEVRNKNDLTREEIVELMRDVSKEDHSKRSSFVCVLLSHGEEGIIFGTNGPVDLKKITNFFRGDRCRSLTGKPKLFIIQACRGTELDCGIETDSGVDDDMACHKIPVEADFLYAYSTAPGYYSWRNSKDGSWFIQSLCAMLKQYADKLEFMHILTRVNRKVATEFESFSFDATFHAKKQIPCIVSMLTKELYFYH
# Papain = molecular target: T3, Papain (Carica papaya, UniProt P00784); assay: Ability to inhibit papain was evaluated by amidolytic method using fluorogenic or chromogenic substrates
# T3 sequence (P00784 whole entry): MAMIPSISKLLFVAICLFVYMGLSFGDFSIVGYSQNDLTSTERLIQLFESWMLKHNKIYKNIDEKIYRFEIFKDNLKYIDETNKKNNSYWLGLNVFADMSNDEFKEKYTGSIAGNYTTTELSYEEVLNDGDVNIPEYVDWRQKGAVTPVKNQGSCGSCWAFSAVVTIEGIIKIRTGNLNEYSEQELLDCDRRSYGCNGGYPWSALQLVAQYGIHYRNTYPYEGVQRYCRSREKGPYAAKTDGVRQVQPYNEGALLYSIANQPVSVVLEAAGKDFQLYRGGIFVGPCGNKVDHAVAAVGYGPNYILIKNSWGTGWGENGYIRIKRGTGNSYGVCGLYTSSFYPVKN
# Caspase-3 [4] = molecular target: T2, Caspase-3; assay: Amidolytic activity of THP.1 cell lysate against Caspase-3 using C3-Asp-AMC as a substrate at 10e -4 M concentration; NI is No Inhibition
# Serine protease 1 = Serine protease 1 (Homo sapiens, UniProt P07477); assay: Ability to inhibit Trypsin was evaluated by amidolytic method using fluorogenic or chromogenic substrates
# Serine protease 1, sequence (P07477 whole entry): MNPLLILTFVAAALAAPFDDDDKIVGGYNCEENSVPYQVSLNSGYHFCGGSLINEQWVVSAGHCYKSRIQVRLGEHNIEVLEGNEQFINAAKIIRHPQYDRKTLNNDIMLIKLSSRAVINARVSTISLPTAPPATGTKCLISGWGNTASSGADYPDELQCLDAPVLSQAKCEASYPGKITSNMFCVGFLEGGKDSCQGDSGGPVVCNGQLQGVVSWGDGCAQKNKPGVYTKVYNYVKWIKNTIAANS
# Prothrombin = Prothrombin (Homo sapiens, UniProt P00734); assay: Ability to inhibit Thrombin was evaluated by amidolytic method using fluorogenic or chromogenic substrates
structure (smiles),measurement,setting,value
CC(=O)N[C@@H](Cc1ccc(O)cc1)C(=O)N[C@H](C(=O)N[C@@H](C)C(=O)N[C@H](C=O)CC(=O)O)C(C)C,IC50,Caspase-1 [1],68000 nM
same,IC50,Caspase-1 [2],2000 nM
same,IC50,Caspase-3 [3],190000 nM
CC[C@H](C)[C@H](NC(=O)[C@H](CCCN=C(N)N)NC(=O)OCc1ccccc1)C(=O)N[C@H](CC=O)Cc1ccccc1,IC50,Papain,65000 nM
CC[C@H](C)[C@H](NC(=O)[C@H](CCCN=C(N)N)NC(=O)OCc1ccccc1)C(=O)N[C@H](C=O)Cc1ccccc1,IC50,Papain,70 nM
CC(=O)N[C@@H](Cc1ccc(O)cc1)C(=O)N[C@H](C(=O)N[C@@H](C)C(=O)N[C@H](CC=O)CC(=O)O)C(C)C,IC50,Caspase-1 [1],142000 nM
same,IC50,Caspase-1 [2],2900 nM
same,IC50,Caspase-3 [4],Not Active
CC(C)(C)OC(=O)N[C@H](Cc1ccccc1)C(=O)N1CCC[C@@H]1C(=O)N[C@H](CC=O)CCCN=C(N)N,IC50,Serine protease 1,1760 nM
same,IC50,Prothrombin,190 nM
CC(=O)N[C@@H](CC(=O)O)C(=O)N[C@@H](CCC(=O)O)C(=O)N[C@H](C(=O)N[C@H](C=O)CC(=O)O)C(C)C,IC50,Caspase-1 [1],70000 nM
same,IC50,Caspase-3 [4],Not Active
CC[C@H](C)[C@H](NC(=O)[C@H](CCCN=C(N)N)NC(=O)OCc1ccccc1)C(=O)N[C@@H](C=O)Cc1ccccc1,IC50,Papain,8500 nM
CC(C)(C)OC(=O)N[C@H](Cc1ccccc1)C(=O)N1CCC[C@@H]1C(=O)N[C@H](C=O)CCCNC(=N)N,IC50,Serine protease 1,3 nM
same,IC50,Prothrombin,9 nM
CC(C)(C)OC(=O)N[C@H](Cc1ccccc1)C(=O)N1CCC[C@@H]1C(=O)N[C@@H](C=O)CCCN=C(N)N,IC50,Serine protease 1,1790 nM
same,IC50,Prothrombin,5440 nM
CC(C)COC(=O)N[C@@H](Cc1ccccc1)C(=O)N[C@H](C=O)CCCNC(=N)N,IC50,Papain,130 nM
CC(C)COC(=O)N[C@@H](Cc1ccccc1)C(=O)N[C@H](CC=O)CCCNC(=N)N,IC50,Papain,105000 nM
CC(=O)N[C@@H](CC(=O)O)C(=O)N[C@@H](CCC(=O)O)C(=O)N[C@H](C(=O)N[C@H](CC=O)CC(=O)O)C(C)C,IC50,Caspase-1 [1],22.3 nM
same,IC50,Caspase-3 [3],438 nM
CC(C)COC(=O)N[C@@H](Cc1ccccc1)C(=O)N[C@@H](C=O)CCCN=C(N)N,IC50,Papain,12500 nM
